# In patent publication US9783505B2, “Substituted diaminopyrimidyl compounds, compositions thereof, and methods of treatment therewith” (Signal Pharmaceuticals, LLC, priority 2013, dated 2017):
# Biological target: T1, His-PKC-theta (Homo sapiens, UniProt Q04759)
# T1 construct: His; purchased Invitrogen
# Experiment: PKC-theta Assay (384-well time resolved fluorescence, IMAP TR-FRET)
# Format: biochemical
# Conditions: Table 2; read-out: Act. Level (IC50 in the PKC-theta Assay)
# Description: PKC-theta Assay. A 384-well time resolved fluorescence assay was used to monitor PKC-theta activity. The PKC-theta assay was run in the following assay buffer: 50 mM HEPES pH 7.6, 10 mM MgCl2, 1 mM DTT, 0.01% Triton X-100, 0.01% BSA and 0.1 mM EDTA. To initiate the reaction, 200 nM of Fam-labeled S6-derived peptide (Molecular Devices) and 10 μM of ATP were mixed with 142 pM of His-PKC-theta (Invitrogen) for a total assay volume of 25 μL in each well. The assay was incubated at room temperature for 2 hours and terminated using a 60 μL/well mixture of Detection Binding Solution: 70% IMAP Progressive Binding Buffer A, 30% IMAP Progressive Binding Buffer B, 1:600 Progressive Binding Reagent, and 1:400 TR-FRET Tb Donor (Molecular Devices). The assay plates were then incubated overnight at room temperature and read on a Perkin-Elmer Envision Reader.
# T1 sequence (Q04759 whole entry): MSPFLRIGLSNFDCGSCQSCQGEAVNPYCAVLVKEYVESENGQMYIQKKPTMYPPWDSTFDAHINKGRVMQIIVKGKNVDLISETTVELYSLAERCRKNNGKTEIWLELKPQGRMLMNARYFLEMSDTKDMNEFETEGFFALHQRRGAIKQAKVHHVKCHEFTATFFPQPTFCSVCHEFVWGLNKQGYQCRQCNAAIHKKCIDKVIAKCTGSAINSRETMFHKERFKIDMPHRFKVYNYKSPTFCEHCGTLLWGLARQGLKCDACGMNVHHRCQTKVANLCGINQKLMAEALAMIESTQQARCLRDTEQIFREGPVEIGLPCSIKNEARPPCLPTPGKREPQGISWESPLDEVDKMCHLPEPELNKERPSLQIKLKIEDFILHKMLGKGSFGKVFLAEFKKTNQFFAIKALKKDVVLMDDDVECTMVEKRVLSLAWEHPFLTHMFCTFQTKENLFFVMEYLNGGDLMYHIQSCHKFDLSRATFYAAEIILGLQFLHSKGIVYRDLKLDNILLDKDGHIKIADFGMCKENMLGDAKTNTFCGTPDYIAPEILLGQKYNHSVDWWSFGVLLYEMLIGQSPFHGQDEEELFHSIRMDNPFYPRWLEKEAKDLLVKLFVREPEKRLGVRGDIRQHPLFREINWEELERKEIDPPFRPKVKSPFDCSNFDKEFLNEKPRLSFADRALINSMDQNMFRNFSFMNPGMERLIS
row,SMILES,IC50
1,CC1(C)[C@@H](Nc2nc(NCCc3cccc(Cl)c3)ncc2C#N)C[C@@H]1C(N)=O [Cmpd 162],100 to 800 nM
2,COc1cc(CCNc2ncc(C#N)c(N[C@@H]3C[C@H](O)C3(C)C)n2)ccc1O [Cmpd 104],2000 to 10000 nM
3,CC1(C)[C@@H](O)C[C@H]1Nc1nc(NCCc2cccc(Cl)c2)ncc1C#N [Cmpd 86],< 100 nM
4,CNC(=O)c1cccc(CCNc2ncc(C#N)c(N[C@@H]3C[C@H](O)C3(C)C)n2)c1 [Cmpd 135],800 to 2000 nM
5,COc1ccc(CCNc2ncc(C#N)c(N[C@@H]3C[C@H](O)C3(C)C)n2)cc1 [Cmpd 103],100 to 800 nM
6,CC1(C)[C@@H](O)C[C@H]1Nc1nc(NCCc2ccc(-c3ccccc3)cc2)ncc1C#N [Cmpd 111],100 to 800 nM
7,CC1(C)[C@@H](O)C[C@H]1Nc1nc(NCCc2cccc(C(F)(F)F)c2)ncc1C#N [Cmpd 45],100 to 800 nM
8,CC1(C)[C@@H](Nc2nc(NCCc3cccc(Cl)c3)ncc2C#N)C[C@@H]1N [Cmpd 157],100 to 800 nM
9,CC1(C)[C@H](N)C[C@@H]1Nc1nc(NCCc2cccc(Cl)c2)ncc1C#N [Cmpd 159],< 100 nM
10,N#Cc1cnc(NCCc2cccc(Cl)c2)nc1N[C@H]1C[C@@H](O)C1 [Cmpd 70],800 to 2000 nM

# Other lines, results leading:
row,IC50,SMILES
1,100 to 800 nM,CC1(C)C[C@H](Nc2nc(NCCc3ccc(S(=O)(=O)N4CCCC4)cc3)ncc2C#N)CC[C@@H]1O [Cmpd 174]
2,100 to 800 nM,CC1(C)C[C@H](Nc2nc(NCC(=O)c3ccc(F)cc3F)ncc2C#N)CC[C@@H]1O [Cmpd 66]
3,2000 to 10000 nM,COc1ccc(C(CNc2ncc(C#N)c(N[C@@H]3CC[C@H](O)C(C)(C)C3)n2)N2CCOCC2)cc1 (stereo partly drawn) [Cmpd 39]
4,100 to 800 nM,CC1(C)C[C@H](Nc2nc(NCCc3ccc(CN4CCCC4=O)cc3)ncc2C#N)CC[C@@H]1O [Cmpd 52]
5,100 to 800 nM,CC1(C)C[C@H](Nc2nc(NCCc3cccc(S(C)(=O)=O)c3)ncc2C#N)CC[C@@H]1O [Cmpd 173]
6,< 100 nM,Cc1ccc(CCNc2ncc(C#N)c(N[C@@H]3CC[C@H](O)C(C)(C)C3)n2)cc1C [Cmpd 35]
7,2000 to 10000 nM,N#Cc1cnc(NCc2ccc(F)cc2F)nc1N[C@H]1CC[C@@H](O)CC1 [Cmpd 20]
8,100 to 800 nM,CC1(C)C[C@H](Nc2nc(NCCc3cc(Cl)ccc3C(F)(F)F)ncc2C#N)CC[C@@H]1O [Cmpd 183]
9,100 to 800 nM,CC(C)Oc1ccccc1CNc1ncc(C#N)c(N[C@H]2CC[C@@H](O)CC2)n1 [Cmpd 5]
10,2000 to 10000 nM,CC1(C)C[C@H](Nc2nc(NCC(O)c3ccc(O)cc3)ncc2C#N)CC[C@@H]1O (stereo partly drawn) [Cmpd 80]
11,100 to 800 nM,CC1(C)C[C@H](Nc2nc(NCCc3ccc(OC(F)(F)F)cc3)ncc2C#N)CC[C@@H]1O [Cmpd 53]
12,< 100 nM,CC1(C)C[C@H](Nc2nc(NCCc3ccc(-n4ccnc4)c(Cl)c3)ncc2C#N)CC[C@@H]1O [Cmpd 180]
13,< 100 nM,CC1(C)C[C@@H](O)CC[C@H]1Nc1nc(NCCc2cccc(Cl)c2)ncc1C#N [Cmpd 190]
14,100 to 800 nM,CCc1ccc(CCNc2ncc(C#N)c(N[C@@H]3CC[C@H](O)C(C)(C)C3)n2)cc1 [Cmpd 34]
15,100 to 800 nM,CC1(C)C[C@H](Nc2nc(NCCc3ccc(N4CCCCC4)cc3)ncc2C#N)CC[C@@H]1O [Cmpd 83]
16,2000 to 10000 nM,Cc1nnnn1-c1ccc(CCNc2ncc(C#N)c(N[C@@H]3CCC[C@@](C)(O)C3)n2)cc1 [Cmpd 191]

row,IC50,SMILES
1,< 100 nM,CC1(C)C[C@H](Nc2nc(NCCc3cccc(F)c3)ncc2C#N)CC[C@@H]1O [Cmpd 196]
2,< 100 nM,Cc1ncc(-c2ccc(CCNc3ncc(C#N)c(N[C@@H]4CC[C@H](O)C(C)(C)C4)n3)cc2)s1 [Cmpd 64]
3,800 to 2000 nM,CC(F)(F)COc1ccccc1CCNc1ncc(C#N)c(N[C@@H]2CC[C@H](O)C(C)(C)C2)n1 [Cmpd 152]
4,100 to 800 nM,CC1(C)C[C@H](Nc2nc(NCCc3ccc(OC4CCCC4)cc3)ncc2C#N)CC[C@@H]1O [Cmpd 51]
5,800 to 2000 nM,C[C@@H](CNc1ncc(C#N)c(N[C@@H]2C[C@H](O)C2(C)C)n1)c1ccccc1 [Cmpd 41]
6,800 to 2000 nM,CC1(C)C[C@H](Nc2nc(NCCc3cccc(-c4ccccc4)c3)ncc2C#N)CC[C@@H]1O [Cmpd 58]
7,800 to 2000 nM,CC1(C)C[C@H](Nc2nc(NCCc3ccc(C#N)c(OC(F)(F)F)c3)ncc2C#N)CC[C@@H]1O [Cmpd 144]
8,800 to 2000 nM,CNC(=O)c1cccc(CCNc2ncc(C#N)c(N[C@@H]3CC[C@H](O)C(C)(C)C3)n2)c1 [Cmpd 131]
9,100 to 800 nM,CC1(C)C[C@H](Nc2nc(NCCc3cc(Cl)ccc3S(N)(=O)=O)ncc2C#N)CC[C@@H]1O [Cmpd 193]
10,2000 to 10000 nM,Cc1nnnn1-c1ccccc1CNc1ncc(C#N)c(N[C@@H]2CC[C@@H](O)C(C)(C)C2)n1 [Cmpd 18]
11,2000 to 10000 nM,N#Cc1cnc(NCc2ccccc2-n2cccn2)nc1N[C@H]1CC[C@@H](O)CC1 [Cmpd 21]
12,100 to 800 nM,N#Cc1cnc(NCc2ccccc2-c2ccccc2)nc1N[C@H]1CC[C@@H](O)CC1 [Cmpd 10]
13,100 to 800 nM,CC1(C)C[C@H](Nc2nc(NCCc3ccc(C(N)=O)cc3)ncc2C#N)CC[C@@H]1O [Cmpd 154]
14,100 to 800 nM,CC1(C)C[C@H](Nc2nc(NCCc3ccc(F)cc3)ncc2C#N)CC[C@@H]1O [Cmpd 93]
15,800 to 2000 nM,N#Cc1cnc(NCc2ccccc2N2CCOCC2)nc1N[C@H]1CC[C@@H](O)CC1 [Cmpd 13]

# Same assay, conditions: read-out: Act. Level (IC50 in the PKC-theta Assay)
row,SMILES,IC50
1,CC1(C)[C@@H](O)C[C@H]1Nc1nc(NCc2cnccc2C(F)(F)F)ncc1C(F)(F)F [Cmpd 24],< 100 nM
2,CC(C)(CO)CNc1nc(NCc2cnccc2C(F)(F)F)ncc1C#N [Cmpd 129],100 to 800 nM
3,CC(F)(F)COc1ncncc1CNc1ncc(C#N)c(N[C@H]2CC[C@@](C)(C(N)=O)CC2)n1 [Cmpd 160],< 100 nM
4,CCOc1ncncc1CNc1ncc(C(F)(F)F)c(N[C@@H]2CC[C@H](O)C(C)(C)C2)n1 [Cmpd 25],< 100 nM
5,CC1(C)[C@H](O)C[C@H]1Nc1nc(NCc2cncnc2OCCC(F)(F)F)ncc1C(F)(F)F [Cmpd 125],< 100 nM
6,CC1(C)[C@@H](O)C[C@H]1Nc1nc(NCCc2ccccn2)ncc1C#N [Cmpd 187],2000 to 10000 nM
7,COc1ncncc1CNc1ncc(C(F)(F)F)c(N[C@@H]2C[C@H](O)C2(C)C)n1 [Cmpd 62],< 100 nM
8,CC1(C)[C@H](O)C[C@@H]1Nc1nc(NCc2cnccc2C(F)(F)F)ncc1C(F)(F)F [Cmpd 120],100 to 800 nM
9,C[C@@H]1CC[C@H](Nc2nc(NCc3cnccc3C(F)(F)F)ncc2C(F)(F)F)C[C@H]1O [Cmpd 63],< 100 nM
10,CC(F)(F)COc1ncncc1CNc1ncc(C#N)c(N[C@H]2CC[C@@H](O)CC2)n1 [Cmpd 153],< 100 nM
11,COC1CC(Nc2nc(NCc3cnccc3C(F)(F)F)ncc2C(F)(F)F)C1(C)C (stereo not drawn) [Cmpd 74],< 100 nM
12,CCc1ncncc1CNc1ncc(C#N)c(N[C@@H]2C[C@H](O)C2(C)C)n1 [Cmpd 67],< 100 nM
13,N#Cc1cnc(NCc2cnccc2C(F)(F)F)nc1NC12CC3CC(CC(O)(C3)C1)C2 [Cmpd 124],800 to 2000 nM
14,CC1(C)[C@@H](O)C[C@H]1Nc1nc(NCCc2ccncc2)ncc1C#N [Cmpd 186],800 to 2000 nM
15,CC1(C)[C@@H](O)C[C@H]1Nc1nc(NCCCn2ccnc2)ncc1C#N [Cmpd 188],2000 to 10000 nM
16,CC1(C)C(O)C[C@@H]1Nc1nc(NCc2cncnc2OCCC(F)(F)F)ncc1C(F)(F)F (stereo partly drawn) [Cmpd 85],< 100 nM
17,CC(C)c1ncncc1CNc1ncc(C#N)c(N[C@@H]2C[C@H](CO)C2(C)C)n1 [Cmpd 54],< 100 nM
18,CC(C)(F)c1ncncc1CNc1ncc(C(F)(F)F)c(N[C@@H]2C[C@H](O)C2(C)C)n1 [Cmpd 1],< 100 nM
19,CC(C)c1ncncc1CNc1ncc(C#N)c(N[C@H]2C[C@@H](CO)C2(C)C)n1 [Cmpd 140],100 to 800 nM
20,N#Cc1cnc(NCc2cnccc2C(F)(F)F)nc1N[C@H]1C[C@H](O)C1 [Cmpd 108],100 to 800 nM
21,CNC(=O)[C@H]1CC[C@@H](Nc2nc(NCc3cnccc3C(F)(F)F)ncc2C#N)CC1 [Cmpd 68],< 100 nM
22,CNC(=O)[C@H]1CC[C@@H](Nc2nc(NCc3cncnc3Oc3cccc(C)c3)ncc2C#N)CC1 [Cmpd 22],< 100 nM
23,CC1(C)[C@H](O)C[C@@H]1Nc1nc(NCc2cncnc2-c2ccc(F)cc2)ncc1C#N [Cmpd 133],100 to 800 nM
24,CC1(C)[C@@H](O)C[C@H]1Nc1nc(NCc2c[n+]([O-])ccc2C(F)(F)F)ncc1C(F)(F)F [Cmpd 41],< 100 nM
25,N#Cc1cnc(NCCc2ccc3ccccc3n2)nc1N[C@H]1CC[C@@H](O)CC1 [Cmpd 150],2000 to 10000 nM
26,CC1(C)[C@@H](O)C[C@H]1Nc1nc(NCc2cncnc2OCC(F)F)ncc1C(F)(F)F [Cmpd 7],< 100 nM
27,CC1(C)[C@H](O)C[C@H]1Nc1nc(NCc2cnccc2C(F)(F)F)ncc1C(F)(F)F [Cmpd 33],< 100 nM

# Results, then the compound that gave them:
row,IC50,SMILES
1,< 100 nM,CC(C)(F)c1ncncc1CNc1ncc(C#N)c(N[C@@H]2CC[C@H](O)C(C)(C)C2)n1 [Cmpd 10]
2,100 to 800 nM,CC1(C)C[C@H](Nc2nc(NCCc3c[nH]c4ccc(Cl)cc34)ncc2C#N)CC[C@@H]1O [Cmpd 169]
3,100 to 800 nM,Cc1[nH]c2ccccc2c1CCNc1ncc(C#N)c(N[C@@H]2CC[C@H](O)C(C)(C)C2)n1 [Cmpd 168]
4,100 to 800 nM,Cc1[nH]c2c(F)cc(F)cc2c1CCNc1ncc(C#N)c(N[C@@H]2CC[C@H](O)C(C)(C)C2)n1 [Cmpd 167]
5,< 100 nM,CCOc1ncncc1CNc1ncc(C#N)c(N[C@@H]2CC[C@H](O)C(C)(C)C2)n1 [Cmpd 37]
6,< 100 nM,Cc1cccc(Oc2ncncc2CNc2ncc(C#N)c(N[C@H]3CC[C@@](C)(O)CC3)n2)c1 [Cmpd 38]
7,800 to 2000 nM,Cc1ccc2c(CCNc3ncc(C#N)c(N[C@@H]4CC[C@H](O)C(C)(C)C4)n3)c[nH]c2c1 [Cmpd 174]
